2 compounds from article PMC3273674 (Biochimica et Biophysica Acta, 2011) can be followed below.

Where no end group is shown, it is not given here.

The assay relates to dsDNA ([…]). The experiment in a line: DNA binding by fluorescence intercalator displacement. The settings on record: C50 normalized compared to BF2.

Regarding `CC(C)C[C@H](NC(=O)CNC(=O)[C@H](C)NC(=O)[C@H](CCCNC(=N)N)NC(=O)[C@H](CO)NC(=O)[C@H](CO)NC(=O)[C@H](CCCNC(=N)N)NC(=O)[C@@H](N)[C@@H](C)O)C(=O)N[C@@H](CCC(N)=O)C(=O)N[C@@H](Cc1c[nH]c2ccccc12)C(=O)N1CCC[C@H]1C(=O)N[C@H](C(=O)NCC(=O)N[C@@H](CCCNC(=N)N)C(=O)N[C@H](C(=O)N[C@@H](Cc1c[nH]cn1)C(=O)N[C@@H](CCCNC(=N)N)C(=O)N[C@@H](CC(C)C)C(=O)N[C@@H](CC(C)C)C(=O)N[C@@H](CCCNC(=N)N)C(=O)N[C@@H](CCCCN)C(=O)O)C(C)C)C(C)C` [BF2], the “Relative C50” value is listed as 1.
In the case of KVLRDNIQGWTKPAIRRLARRG [DesHDAP3] it was 1.09.
